Measurements from patent US8785457B2 (Cellzome Limited, priority 2009, dated 2014).

Key:
[1] = test system: Akt serine-473 phosphorylation; assay: In vitro Phospho-Akt cellular assay (pAkt S473) in HEK293T/17 cells; type: cell-based; settings: Homo sapiens, 2 hours
Text: Activation of mTOR signaling results in phosphorylation of several downstream targets. In cells, mTOR exists in two different protein complexes. The mTOR Complex-1 (mTORC1) phosphorylates and activates S6 Kinase 1 (S6K1) and S6 Kinase 2 (S6K2) (also known as p70S6K) which then phosphorylate S6 Ribosomal Protein (S6RP) (also known as RPS6)3. S6RP is phosphorylated on serine 235, serine 236, serine 240 and serine 244 by both pS6K1 and pS6K2. The mTOR Complex-2 (mTORC2) phosphorylates AKT on serine 473 which activates the AKT signaling pathway.
The assay measures a test compound's inhibition of S6RP serine-240/244 phosphorylation and inhibition of Akt serine-473 phosphorylation in human embryonic kidney derived HEK293T/17 cells (ATCC CRL-11268).
The HEK293T/17 cell line is maintained in DMEM media (Invitrogen catalogue number 41965-039) supplemented with 10% FCS at 37° C. in a 5% CO2 humidified incubator.
Cells are seeded in 96-well plates at 40,000 cells/well (pS6RP S240/244 assay) or 80,000 cells/well (pAkt S473 assay) in 90 μl growth media (DMEM, 2% FCS). Plates are incubated for 1 hour in a humidified incubator to allow the cells to adhere. Cells are treated with 8 concentrations of test compounds or DMSO alone for controls (final DMSO concentration 0.1%) and incubated at 37° C. for 2 hours. Then 20 μl of 5× concentrated lysis buffer (750 mM NaCl, 100 mM Tris pH7.4, 5 mM ADTA, 5 mM EGTA, 5% Triton X-100) is added, plates are sealed and incubated for 15 minutes at 4° C. with gentle shaking. After cell lysis, 25 μl cell lysate is transferred to a MesoScale plate coated with an antibody to pS6RP Ser240/244 (MesoScale Discovery K150DGD-3) or an antibody to pAkt Ser 473 (MesoScale Discovery K151DGD-3). Plates have been blocked before by incubation with 150 μl MesoScale Discovery Blocking Solution-A for 1 hour at room temperature followed by washing with 150 μl 1× Tris wash buffer per well. After the transfer of the cell lysate to the MSD plate, the pS6RP (or pAkt) protein is captured on the coated antibody by incubation at room temperature for 1 hour with gentle shaking. After the capture step the plate is washed three times with 150 μl of 1× Tris wash buffer per well. Then 25 μl detection antibody conjugated with a Sulfo-Tag is added and incubated for 1 hour at room temperature with gentle shaking. Subsequently the antibody solution is removed and the plate is washed 3 times with 150 μl×Tris wash buffer per well and 150 μl Read buffer is added. The plates are analysed on a MSD 2400 Plate Reader (MesoScale Discovery). Data analysis is performed using nonlinear regression for a sigmoidal dose-response with a variable slope.

[2] = test system: Salmonella typhimurium strain TA1535; assay: Ames plate assay, TA1535
Experimental: (§1) Certain compounds of the invention were tested for their potential to induce gene mutations in bacterial strains of Salmonella typhimurium (strains TA1535, TA1537, TA98, TA100) and Escherichia coli (strain WP2uvrA(pKM101)) in a bacterial mutation assay in the absence and presence of metabolite activation (rat S9-mix). Compounds are tested at the following dose levels: 50, 150, 500, or 1500 μg/plate.
(§2) Vehicle control treatment is the vehicle used to prepare the test compound formulation diluted to the same extent as the test compound solution. Positive controls using known mutagens are included for each strain with and without rat S9 mix. Four plates are used for the vehicle control and two replicate plates per dose per strain for the treated groups and for each positive control. At the end of incubation the number of revertant colonies per plate are recorded and mean values calculated for each vehicle control, positive control and concentration of test compound used. Results are also expressed as a ratio of the mean values to the mean concurrent vehicle control value (i.e. fold increase).

[3] = test system: Salmonella typhimurium strain TA1537; assay: Ames plate assay, TA1537
Experimental: as §1, §2

[4] = test system: Salmonella typhimurium strain TA98; assay: Ames plate assay, TA98
Experimental: as §1, §2

[5] = test system: Salmonella typhimurium strain TA100; assay: Ames plate assay, TA100
Experimental: as §1, §2

For `CCOC(=O)N1Cc2nc(-c3ccc(NC(=O)NC4CC4)cc3)nc(N3CCOC[C@@H]3C)c2C1` [Example 34, (S)-ethyl 2-(4-(3-cyclopropylureido)phenyl)-4-(3-methylmorpholino)-5H-pyrrolo[3,4-d]pyrimidine-6(7H)-carboxylate], the IC50 [1] was 21 nM, the “Ames plate assay TA1535 +S9” value ([2]; TA1535, +S9, 50 μg/Plate) was “−” and the “Ames plate assay TA1535 +S9” value ([2]; TA1535, +S9, 150 μg/Plate) was “−”. The “Ames plate assay TA1535 +S9” value ([2]; TA1535, +S9, 500 μg/Plate) was “−”, the “Ames plate assay TA1535 +S9” value ([2]; TA1535, +S9, 1500 μg/Plate) was “−” and the “Ames plate assay TA1535 −S9” value ([2]; TA1535, −S9, 50 μg/Plate) was “−”. For the same compound, the “Ames plate assay TA1535 −S9” value ([2]; TA1535, −S9, 150 μg/Plate) was “−”, the “Ames plate assay TA1535 −S9” value ([2]; TA1535, −S9, 500 μg/Plate) was “−” and the “Ames plate assay TA1535 −S9” value ([2]; TA1535, −S9, 1500 μg/Plate) was “−”. For the same compound, the “Ames plate assay TA1537 +S9” value ([3]; TA1537, +S9, 50 μg/Plate) was “−”, the “Ames plate assay TA1537 +S9” value ([3]; TA1537, +S9, 150 μg/Plate) was “−” and the “Ames plate assay TA1537 +S9” value ([3]; TA1537, +S9, 500 μg/Plate) was “−”. The “Ames plate assay TA1537 +S9” value ([3]; TA1537, +S9, 1500 μg/Plate) was “−”, the “Ames plate assay TA1537 −S9” value ([3]; TA1537, −S9, 50 μg/Plate) was “−” and the “Ames plate assay TA1537 −S9” value ([3]; TA1537, −S9, 150 μg/Plate) was “−”. The “Ames plate assay TA1537 −S9” value ([3]; TA1537, −S9, 500 μg/Plate) was “−”, the “Ames plate assay TA1537 −S9” value ([3]; TA1537, −S9, 1500 μg/Plate) was “−” and the “Ames plate assay TA98 +S9” value ([4]; TA98, +S9, 50 μg/Plate) was “−”. The “Ames plate assay TA98 +S9” value ([4]; TA98, +S9, 150 μg/Plate) was “−”, the “Ames plate assay TA98 +S9” value ([4]; TA98, +S9, 500 μg/Plate) was “−” and the “Ames plate assay TA98 +S9” value ([4]; TA98, +S9, 1500 μg/Plate) was “−”. The “Ames plate assay TA98 −S9” value ([4]; TA98, −S9, 50 μg/Plate) was “−”, the “Ames plate assay TA98 −S9” value ([4]; TA98, −S9, 150 μg/Plate) was “−” and the “Ames plate assay TA98 −S9” value ([4]; TA98, −S9, 500 μg/Plate) was “−”. The “Ames plate assay TA98 −S9” value ([4]; TA98, −S9, 1500 μg/Plate) was “−”, the “Ames plate assay TA100 +S9” value ([5]; TA100, +S9, 50 μg/Plate) was “−” and the “Ames plate assay TA100 +S9” value ([5]; TA100, +S9, 150 μg/Plate) was “−”. For the same compound, the “Ames plate assay TA100 +S9” value ([5]; TA100, +S9, 500 μg/Plate) was “−”, the “Ames plate assay TA100 +S9” value ([5]; TA100, +S9, 1500 μg/Plate) was “−” and the “Ames plate assay TA100 −S9” value ([5]; TA100, −S9, 50 μg/Plate) was “−”. For the same compound, the “Ames plate assay TA100 −S9” value ([5]; TA100, −S9, 150 μg/Plate) was “−”, the “Ames plate assay TA100 −S9” value ([5]; TA100, −S9, 500 μg/Plate) was “−” and the “Ames plate assay TA100 −S9” value ([5]; TA100, −S9, 1500 μg/Plate) was “−”.
